The assay deals with multiple myeloma. Briefly: Clinical response to Selinexor-based regimens after anti-CD38 monoclonal antibody in the immediate prior line (STOMP, XPORT-MM-028). It counts as in vivo, human. The conditions noted are these: Selinexor-based regimen.

As to `O=C(/C=C\n1cnc(-c2cc(C(F)(F)F)cc(C(F)(F)F)c2)n1)NNc1cnccn1` [Selinexor], the “PFS, anti-CD38 mAb in immediate prior line versus not” value (STOMP and XPORT-MM-028 trials) is on record as “statistically significant improvement”. Further, for the setting “STOMP trial (xpd and xkd arms)”, the “VGPR rate, anti-CD38 mAb in immediate prior line versus not” value was “higher”. Also, the “ORR and CBR, anti-CD38 mAb in immediate prior line versus not” value (XPORT-MM-028 trial (xvd)) is given as “considerably higher”.

Values taken from US20240192195A1, “A MULTIOMIC APPROACH TO MODELING OF GENE REGULATORY NETWORKS IN MULTIPLE MYELOMA” (H. LEE MOFFITT CANCER CENTER AND RESEARCH INSTITUTE, INC., priority 2021, published 2024).
